pKd, pKi: −log10 of the molar value. Like-named read-outs stand apart in the source and are kept apart here.
Experiments:
[1] = biological target: T1, OA1 (Homo sapiens, UniProt P51810); conditions: untransfected cells
[2] = tested on: retinal ganglion cells and photoreceptors; assay: L-DOPA supplementation in drinking water of tyrosinase deficient pregnant mice and pups (E7 to P14); assay type: in vivo; conditions: 1.0 mg/ml in drinking water, E7 to P14, tyrosinase deficient mice
[3] = biological target: T1, OA1; assay: Radiolabeled ligand binding of [3H]-L-DOPA to CHO cells transfected to express OA1 (saturation); set-up: expressed in transfected cells; host or cells: CHO cells (ATCC)
[4] = biological target: T1, OA1; assay: Measurement of [Ca2+]i (Fura-2 ratiometric imaging) in CHO cells transfected to express OA1; assay type: cell-based; set-up: expressed in transfected cells; host or cells: CHO cells (ATCC)
[5] = biological target: T1, OA1; conditions: 1.0 μM
[6] = tested on: PEDF secretion by RPE; assay: PEDF secretion by pigmented RPE cells (ELISA of conditioned medium); assay type: cell-based
Method: Mutations in OA1 cause defects in the development of the neurosensory retina. […] After treatment, the cells were returned to standard medium without exogenous L-DOPA for three days. Control cells were not treated with L-DOPA, but the medium was changed at the same time the experimental cells were returned to normal medium. Conditioned medium was collected after three days and PEDF was measured.
In these experiments, pigmented RPE cells were either maintained in DMEM, or DMEM containing 200 μM PTU for three days, then PEDF secretion was measured. […] The data are presented as percent of control for this experiment because the cultures used varied in both pigmentation and PEDF expression before the experiment began.

[7] = biological target: T1, OA1; assay: Cell surface biotinylation / western blot of OA1 in cultured cells at lowered tyrosine; assay type: cell-based; set-up: expressed in transfected cells; host or cells: CHO cells (ATCC)
Method: Endosomal localization of GPCRs occurs normally after exposure to a ligand. Therefore, it was investigated whether a ligand for the receptor was present in the standard incubation medium that could drive internalization of OA1. Since the standard culture medium contains 500 μM tyrosine, and tyrosine is the starting material for pigment synthesis, the effect of tyrosine on receptor distribution was evaluated. To test whether tyrosine affected OA1 distribution in cultured cells DMEM was formulated without tyrosine, and dialyzed fetal bovine serum was used. In the presence of tyrosine-free medium, OA1 was detected on the plasma membrane of cultured RPE cells both in the absence (not shown), and in medium containing low concentrations of tyrosine (1 μM, FIG. 1 B). […] Similarly, OA1-GFP expressed in COS illustrated a cell surface expression that was tyrosine sensitive (FIG. 1 C). Quantification of six such experiments indicated significant variability in the amount of OA1 found at the cell surface using transient transfections. […]
Not only was the distribution of OA1 in transfected cells sensitive to tyrosine levels in the medium, total OA1-GFP expression was increased 5-fold in cells maintained in 1 μM tyrosine. To verify that this difference related to OA1 expression rather than cell number, actin expression was evaluated from the paired samples. […]

[8] = biological target: T1, OA1; assay: Competitive binding against 5 μM [H3] L-DOPA in OA1 transfected CHO cells; set-up: expressed in transfected cells; host or cells: CHO cells (ATCC)

T1 sequence (P51810 whole entry): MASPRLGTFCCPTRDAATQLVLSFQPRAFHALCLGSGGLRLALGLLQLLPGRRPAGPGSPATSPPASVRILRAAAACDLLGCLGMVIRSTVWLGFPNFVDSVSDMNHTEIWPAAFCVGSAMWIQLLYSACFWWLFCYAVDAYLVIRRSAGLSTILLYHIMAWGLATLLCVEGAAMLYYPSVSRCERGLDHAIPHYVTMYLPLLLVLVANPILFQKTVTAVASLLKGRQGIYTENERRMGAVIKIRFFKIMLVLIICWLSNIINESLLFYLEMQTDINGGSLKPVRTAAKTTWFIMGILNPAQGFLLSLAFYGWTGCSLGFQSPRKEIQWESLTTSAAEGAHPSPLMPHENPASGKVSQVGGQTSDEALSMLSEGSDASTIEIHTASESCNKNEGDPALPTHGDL

N[C@@H](Cc1ccc(O)c(O)c1)C(=O)O [L-DOPA, 2-amino-3-(3,4-dihydroxyphenyl)propanoic acid]
β-arrestin distribution response [1]: no response | photoreceptor nuclear area (measure of photoreceptor numbers) [2]: increased the photoreceptor nuclear area | retinal ganglion cell numbers [2]: increases retinal ganglion cell numbers | pKd ([3]; Kd of L-DOPA binding to OA1, OA1 transfected CHO cells, [3H]-L-DOPA): 5.03 | specific binding of L-DOPA ([3]; untransfected CHO cells): No specific binding | pertussis toxin sensitivity of the [Ca2+]i increase ([4]; in presence of pertussis toxin, CHO and RPE): not pertussis toxin sensitive | change in [Ca2+]i ([5]; RPE cells transfected to express OA1): increase | change in [Ca2+]i ([5]; RPE expressing endogenous OA1): increase | PEDF secretion ([6]; 1 μM for one hour, medium collected after three days, vs paired control pigmented RPE): significant increase | PEDF secretion ([6]; 1.0 μM in continued presence of PTU, measured after 72 hours): increasing PEDF secretion

NC(=S)Nc1ccccc1 [PTU, phenylthiourea]
PEDF secretion ([6]; 200 μM for three days, pigmented RPE): significant decrease

N[C@@H](Cc1ccc(O)cc1)C(=O)O [tyrosine]
OA1 in the bound (cell surface) fraction ([7]; OA1-GFP transfected COS cells maintained in 1 μM tyrosine): 5-40% | increase of total OA1-GFP expression ([7]; transfected cells in 1 μM tyrosine vs normal DMEM (500 μM)): 5 fold | pKi [8]: 4.28 | competition with L-DOPA for OA1 binding ([8]; competitor at 1 mM): competed with L-DOPA | effect on [Ca2+]i ([4]; concentrations up to 1 mM, OA1 transfected CHO cells): no positive effect

pertussis toxin
basal level of [Ca2+]i ([4]; all cells studied (transfected CHO and RPE, RPE with endogenous OA1)): lowered the basal level
